We go through seven compounds from US11773109B2, “Composition for hardening soft tissue” (The Catholic University of Korea Industry—Academic …, priority 2016, dated 2023).

Assay [1] concerns pancreas of mice. The experiment in a line: Tension (suture-holding capacity) of the mouse pancreas after treatment, Newton dynamometer. The format is in vivo. The conditions noted are these: mouse pancreas treated with 1 mM of compound; for change in the tension of the pancreas compared to the control: compared to control (PBS / untreated), result in words; for response vs control in vivo at 1000 µM: fold of control, read-out: increase of the tension of the pancreas compared to the control. The procedure: Specifically, it means a force which occurs in an organ in response to an external force exerted by stretching or pulling action. The measurement of the tension according to the present invention is performed using a dynamometer. More specifically, the tension is determined by measuring suture-holding capacity using a Newton dynamometer. At this time, the tension is calculated by adding the weight of the tissue.
(§1) More specifically, three mice were treated with 1 mM of each of the antibiotics shown above, and three mice were treated with phosphate buffered saline (PBS) as a control.
(2) Measurement of Tensile
The tension of the pancreas was measured using a dynamometer. Specifically, a pancreatic fragment having a size of 1×1×1.5 cm was prepared, and then silk 4-0 suture was passed through the tissue to form a knob, and suture-holding capacity was measured using a Newton dynamometer. At this time, the tension was calculated by adding the weight of the tissue.

Assay [2] has as its system pancreas of mice. The experiment in a line: Hardness (elastic modulus) of the mouse pancreas after treatment, hardness meter (Venustron). It counts as in vivo. As to conditions: mouse pancreas treated with 1 mM of compound; for change in the hardness of the pancreas compared to the control: compared to control (PBS / untreated), result in words. The procedure: The measurement of the hardness according to the present invention is performed using a hardness meter, and measurement of the hardness of the pancreas is performed by measuring elastic modulus (EM) based on the Hooke's law and the Hertz's contact stress theory. The EM is a measure of the stiffness of an elastic material, and is expressed as the ratio of “the stress along the axis” and “the total strain along the axis within the range of the stress” by the Hooke's law.
as §1
(1) Measurement of Hardness
In order to measure the resistance of the pancreas using a hardness meter, the elastic modulus (EM) of the dissected pancreas was measured using Venustron (Axiom, Koriyama, Japan) based on the Hooke's law and the Hertz's contract stress theory, and the resistance of the pancreas was calculated using the following equation: […]
(F, force; v, Poisson's ratio; t, variant of compression; r, the diameter of a rigid spherical probe that presses an object vertically)

Each structure is given as a SMILES string.

For the compound `CC1(C)S[C@@H]2[C@H](NC(=O)Cc3ccccc3)C(=O)N2[C@H]1C(=O)OCCCC#N` [KRM-60030, 3-cyanopropyl (2S,5R,6R)-3,3-dimethyl-7-oxo-6-(2-phenylacetamido)-4-thia-1-azabicyclo[3.2.0]heptane-2-carboxylate], in the assay on pancreas of mice [1], the “change in the tension of the pancreas compared to the control” value (from here on “change in the tension of the pancreas”) is “both the hardness and tension of the pancreas increased”; the response vs control in vivo at 1000 µM stood at 200%. Besides, in the assay on pancreas of mice [2], the “change in the hardness of the pancreas compared to the control” value (from here on “change in the hardness of the pancreas”) was “both the hardness and tension of the pancreas increased”. Further, in the assay on pancreas of mice [2] (fold of control), the “increase of the hardness of the pancreas compared to the control” value stood at 1.5 times.

As to `CC(C)(S)[C@@H](N)C(=O)O` [KRM-60037, (S)-2-amino-3-mercapto-3-methylbutanoic acid, reference compound], in the assay with pancreas of mice [1], the “change in the tension of the pancreas” value is “had the effects of increasing the tension and hardness”; the response vs control in vivo at 1000 µM was 150%. For the same compound, in the assay on pancreas of mice [2], the “change in the hardness of the pancreas” value is “had the effects of increasing the tension and hardness”.

On to `C=CCOC(=O)[C@@H]1N2C(=O)[C@@H](NC(=O)Cc3ccccc3)[C@H]2SC1(C)C` [KRM-60028, Allyl (2S,5R,6R)-3,3-dimethyl-7-oxo-6-(2-phenylacetamido)-4-thia-1-azabicyclo[3.2.0]heptane-2-carboxylate], for which the “change in the tension of the pancreas” value in the assay on pancreas of mice [1] is “both the hardness and tension of the pancreas increased”. In addition, the “change in the hardness of the pancreas” value in the assay with pancreas of mice [2] is “both the hardness and tension of the pancreas increased”.

Consider `Oc1c(I)cc(I)c2cccnc12` [KRP-00004, 5,7-diiodo-8-hydroxyquinoline], for which, in the assay with pancreas of mice [1], the “change in the tension of the pancreas” value is “increased both the hardness and tension”; the response vs control in vivo at 1000 µM was not below 150%. Moreover, the “change in the hardness of the pancreas” value in the assay on pancreas of mice [2] is “increased both the hardness and tension”.

`Cc1cc(O)c2ccccc2n1` [KRP-00006, 4-hydroxy-2-methylquinoline]: the “change in the tension of the pancreas” value in the assay with pancreas of mice [1] was “increased both the hardness and tension”. The “change in the hardness of the pancreas” value in the assay with pancreas of mice [2] was “increased both the hardness and tension”.

On to `CC(C)COC(=O)[C@@H]1N2C(=O)[C@@H](NC(=O)Cc3ccccc3)[C@H]2SC1(C)C` [KRM-60078, Isobutyl (2S,5R,6R)-3,3-dimethyl-7-oxo-6-(2-phenylacetamido)-4-thia-1-azabicyclo[3.2.0]heptane-2-carboxylate], for which the “change in the tension of the pancreas” value in the assay with pancreas of mice [1] was “increased both the hardness and tension of the pancreas to significant levels”. The “change in the hardness of the pancreas” value in the assay on pancreas of mice [2] is “increased both the hardness and tension of the pancreas to significant levels”.

Take `O=C(O)c1ccc2cccnc2c1O` [KRP-00016, 8-hydroxyquinoline-7-carboxylic acid]: in the assay with pancreas of mice [1], the “change in the tension of the pancreas” value was “increased both the hardness and tension”; the response vs control in vivo at 1000 µM is not below 150%. Besides, the “change in the hardness of the pancreas” value in the assay with pancreas of mice [2] was “increased both the hardness and tension”.
